{"source": "patent US7476681B2", "about": "“17β-hydroxysteroid dehydrogenase type 3 inhibitors for the treatment of androgen dependent diseases” (Schering Corporation, priority 2002, dated 2009)", "data": [{"smiles": "CC(=O)NCCN(C(=O)N1CCN(C(c2ccccc2)c2ccccc2)C[C@@H]1C(C)C)C1CCN(C(C)=O)CC1", "note": "[Example 16]", "values": [{"measurement": "melting point", "value": "90 to 92", "unit": "°C"}]}]}
